The record followed here is patent US20200230205A1, “COMPOSITIONS AND METHODS FOR TREATING MYELIN DISORDERS” (CASE WESTERN RESERVE UNIVERSITY, priority 2017, published 2020).

In the assay the test system is MMP-2. The assay can be described thus: MMP-2 in OPC conditioned media or lysate (gelatin zymography, western blot). The assay is classed as cell-based, mouse. The protocol:
To assess MMP-2 or 10 in OPC CM or lysates, OPCs were incubated on precoated PLL, aggrecan, and laminin as described above. OPCs were treated with vehicle, 2.5 μM ISP or SISP for 2 days at 37° C. CM was then harvested and concentrated using Milipore Ultracel YM-C centrifugal filter units at max speed (Eppendorf Centrifuge 5415D) for 30 minutes at 4° C. […] of concentrated CM was loaded into each lane. OPC lysates were assessed using western blot techniques described below with […] protein loaded from each group.
Tissue samples or cerebellar slices or purified OPC cells were homogenized with RIPA lysis buffer and protein concentration was determined by Pierce BCA protein assay kit according to the manufacture instruction (Thermo Fisher). Then, equal amounts of protein were loaded to 15% SDS-PAGE gels, and electrophoretically transferred to PVDF membranes (Millipore). The membranes were blocked in 0.1% TPBS buffer with 5% non-fat milk for 1h at room temperature and probed with indicated primary antibodies overnight at 4° C. and followed by secondary antibody conjugated to horseradish peroxidase (HRP). The following primary antibodies were used: MBP (SMI-99P, Covance, 1:1000), CS-56 (C8035, Sigma, 1:1000), Laminin (L9393, Sigma, 1:1000), GAPDH (AF5718, R and D Systems, 1:1000), MMP-2 (AF1488, R and D Systems, 1:1000), MMP-10 (MAB910, R and D Systems, 1:1000), and […] (sc-47778, Santa Cruz, 1:1000). Enhanced chemiluminescence was performed with a West Pico Kit (Thermo Fisher) and detected by FluorChem E system (ProteinSimple, USA). The density of bands was quantified using ImageJ software (NIH).
CM was collected from 1×10^6 OPCs incubated on PLL, 1 μg/mL laminin, and 2 μg/mL aggrecan coated 6-well plates. OPCs were treated with vehicle, 2.5 μM ISP or SISP for 2 days at 37° C. […] Following washes with destaining buffer (40% MeOH, 10% Acetic Acid), Zymograms were imaged and the amount of gelatin degradation was assessed using ImageJ in a method described in the western blot section.
(In general: A western blot detects proteins with antibodies after separation by electrophoresis.)

For the sequence “GRKKRRQRRRCDMAEHMERLKANDSLKLSQEYESI [ISP]”, the “MMP-2 gelatin-degrading activity, zymography” value (OPC CM, 2.5 μM ISP vs controls) is reported as “significantly increased”. For the same sequence, the “MMP-2 expression in OPC lysates normalized over GAPDH” value (OPC lysates, ISP) is “decrease in MMP-2 expression”. Besides, under “concentrated OPC CM, 2.5 μM ISP”, the “MMP-2 in OPC CM, western blot” value is given as “clearly enhanced”.
